Experimental data reported in ChEMBL document CHEMBL5653631, “A Potent and Selective ULK1 Inhibitor Suppresses Autophagy and Sensitizes Cancer Cells to Nutrient Stress” (iScience, 2018).
One block for each molecule: values may come before it.

Assays:
[1] = molecular target: Macrophage colony-stimulating factor 1 receptor (Homo sapiens) (UniProt P07333); test: Inhibition of human recombinant FMS at 500 nM related to control ULK1
[2] = molecular target: T1, Beta-adrenergic receptor kinase 1 (Homo sapiens) (UniProt P25098); test: Inhibition of human recombinant BARK1 at 15 nM related to control ULK1
T1 sequence (whole entry): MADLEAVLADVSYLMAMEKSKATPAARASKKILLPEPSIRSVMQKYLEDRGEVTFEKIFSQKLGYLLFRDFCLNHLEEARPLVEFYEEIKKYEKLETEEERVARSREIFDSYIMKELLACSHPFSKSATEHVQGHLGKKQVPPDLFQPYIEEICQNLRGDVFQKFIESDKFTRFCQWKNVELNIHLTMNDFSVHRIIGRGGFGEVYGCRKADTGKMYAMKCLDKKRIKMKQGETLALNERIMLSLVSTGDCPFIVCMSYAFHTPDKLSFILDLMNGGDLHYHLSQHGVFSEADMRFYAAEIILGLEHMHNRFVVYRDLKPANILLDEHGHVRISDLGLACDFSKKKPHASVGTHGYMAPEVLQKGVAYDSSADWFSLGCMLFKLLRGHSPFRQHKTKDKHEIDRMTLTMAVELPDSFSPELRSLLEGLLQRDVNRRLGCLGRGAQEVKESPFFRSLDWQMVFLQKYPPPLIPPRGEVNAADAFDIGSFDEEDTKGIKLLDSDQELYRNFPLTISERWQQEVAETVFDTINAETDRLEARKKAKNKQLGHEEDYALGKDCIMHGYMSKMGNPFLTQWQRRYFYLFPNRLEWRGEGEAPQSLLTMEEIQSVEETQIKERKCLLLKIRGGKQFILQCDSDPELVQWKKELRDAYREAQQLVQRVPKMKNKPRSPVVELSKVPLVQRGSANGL

[3] = molecular target: Serine/threonine-protein kinase MARK2 (Homo sapiens) (UniProt Q7KZI7); test: Inhibition of human recombinant MARK2 at 15 nM related to control ULK1
[4] = molecular target: Calcium/calmodulin-dependent protein kinase type II subunit beta (Homo sapiens) (UniProt Q13554); test: Inhibition of human recombinant CaMK2b at 40 nM in presence of ATP by radiometric assay relative to control
[5] = molecular target: DNA-PK/Ku70/Ku85 (Homo sapiens) (UniProt P78527+P12956+P13010); test: Inhibition of human recombinant DNAPK at 40 nM in presence of ATP by radiometric assay relative to control; assay type: protein-complex assay
[6] = molecular target: T2, Muscle, skeletal receptor tyrosine-protein kinase (Homo sapiens) (UniProt O15146); test: Inhibition of human recombinant MUSK at 40 nM in presence of ATP by radiometric assay relative to control
T2 sequence (whole entry): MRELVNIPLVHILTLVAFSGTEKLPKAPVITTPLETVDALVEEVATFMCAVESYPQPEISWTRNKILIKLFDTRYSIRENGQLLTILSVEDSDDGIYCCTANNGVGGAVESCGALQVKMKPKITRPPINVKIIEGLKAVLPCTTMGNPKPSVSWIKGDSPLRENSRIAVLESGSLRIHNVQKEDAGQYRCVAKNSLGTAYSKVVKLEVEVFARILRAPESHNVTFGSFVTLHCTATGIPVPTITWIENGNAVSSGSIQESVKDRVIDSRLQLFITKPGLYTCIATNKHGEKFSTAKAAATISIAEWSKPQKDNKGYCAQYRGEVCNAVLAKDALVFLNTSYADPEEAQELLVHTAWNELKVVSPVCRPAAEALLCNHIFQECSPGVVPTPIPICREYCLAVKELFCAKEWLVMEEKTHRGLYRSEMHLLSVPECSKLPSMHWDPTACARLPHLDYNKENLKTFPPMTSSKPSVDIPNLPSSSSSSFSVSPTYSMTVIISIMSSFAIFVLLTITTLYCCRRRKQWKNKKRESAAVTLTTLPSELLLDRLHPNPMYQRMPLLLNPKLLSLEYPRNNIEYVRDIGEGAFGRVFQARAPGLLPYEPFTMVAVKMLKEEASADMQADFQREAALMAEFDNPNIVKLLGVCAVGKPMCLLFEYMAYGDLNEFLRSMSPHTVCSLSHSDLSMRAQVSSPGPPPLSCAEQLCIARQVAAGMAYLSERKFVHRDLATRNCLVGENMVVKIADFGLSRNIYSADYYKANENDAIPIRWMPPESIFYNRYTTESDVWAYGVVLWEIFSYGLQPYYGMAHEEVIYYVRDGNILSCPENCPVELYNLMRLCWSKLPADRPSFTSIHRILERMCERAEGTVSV

[7] = molecular target: T3, Mitogen-activated protein kinase 13 (Homo sapiens) (UniProt O15264); test: Inhibition of human recombinant p38delta at 40 nM in presence of ATP by radiometric assay relative to control
T3 sequence (whole entry): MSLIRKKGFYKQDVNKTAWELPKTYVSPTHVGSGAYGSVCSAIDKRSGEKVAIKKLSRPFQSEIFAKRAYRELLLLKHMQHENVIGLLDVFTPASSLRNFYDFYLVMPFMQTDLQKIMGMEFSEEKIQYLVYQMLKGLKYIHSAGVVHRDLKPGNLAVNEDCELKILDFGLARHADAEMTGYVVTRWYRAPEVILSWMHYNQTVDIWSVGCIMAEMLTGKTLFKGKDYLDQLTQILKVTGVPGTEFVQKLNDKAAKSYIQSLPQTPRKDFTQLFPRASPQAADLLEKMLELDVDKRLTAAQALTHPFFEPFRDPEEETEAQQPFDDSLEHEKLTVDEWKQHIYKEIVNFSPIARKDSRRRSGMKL

[8] = molecular target: MAP/microtubule affinity-regulating kinase 3 (Homo sapiens) (UniProt P27448); test: Inhibition of human recombinant MARK3 at 40 nM related to control ULK1
[9] = molecular target: Mitogen-activated protein kinase 11 (Homo sapiens) (UniProt Q15759); test: Inhibition of human recombinant p38beta at 40 nM related to control ULK1
[10] = molecular target: Proto-oncogene tyrosine-protein kinase ROS (Homo sapiens) (UniProt P08922); test: Inhibition of human recombinant ROS at 40 nM related to control ULK1

Sequence of Serine/threonine-protein kinase MARK2 (Homo sapiens) (Q7KZI7 whole entry): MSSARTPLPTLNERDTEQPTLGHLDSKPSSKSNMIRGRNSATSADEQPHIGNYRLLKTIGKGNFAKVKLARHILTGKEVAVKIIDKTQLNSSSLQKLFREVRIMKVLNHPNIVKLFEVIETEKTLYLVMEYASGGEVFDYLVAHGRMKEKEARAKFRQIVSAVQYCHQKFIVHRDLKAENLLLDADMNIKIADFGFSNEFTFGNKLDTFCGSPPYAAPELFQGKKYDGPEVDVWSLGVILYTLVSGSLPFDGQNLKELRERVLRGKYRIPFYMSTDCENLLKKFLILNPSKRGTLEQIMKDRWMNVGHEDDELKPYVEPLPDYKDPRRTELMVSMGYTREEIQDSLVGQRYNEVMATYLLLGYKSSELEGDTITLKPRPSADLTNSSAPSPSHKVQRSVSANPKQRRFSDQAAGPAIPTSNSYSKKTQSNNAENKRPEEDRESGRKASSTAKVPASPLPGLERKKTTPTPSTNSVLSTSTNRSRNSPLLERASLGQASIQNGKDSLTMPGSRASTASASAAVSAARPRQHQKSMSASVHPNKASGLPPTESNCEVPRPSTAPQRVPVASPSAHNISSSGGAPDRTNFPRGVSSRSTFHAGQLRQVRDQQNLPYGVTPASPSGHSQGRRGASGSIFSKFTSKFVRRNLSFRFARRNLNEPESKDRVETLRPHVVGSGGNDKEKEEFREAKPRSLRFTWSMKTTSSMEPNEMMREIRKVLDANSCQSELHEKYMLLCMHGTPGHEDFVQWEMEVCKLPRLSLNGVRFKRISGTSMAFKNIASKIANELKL
Sequence of Mitogen-activated protein kinase 11 (Homo sapiens) (Q15759 whole entry): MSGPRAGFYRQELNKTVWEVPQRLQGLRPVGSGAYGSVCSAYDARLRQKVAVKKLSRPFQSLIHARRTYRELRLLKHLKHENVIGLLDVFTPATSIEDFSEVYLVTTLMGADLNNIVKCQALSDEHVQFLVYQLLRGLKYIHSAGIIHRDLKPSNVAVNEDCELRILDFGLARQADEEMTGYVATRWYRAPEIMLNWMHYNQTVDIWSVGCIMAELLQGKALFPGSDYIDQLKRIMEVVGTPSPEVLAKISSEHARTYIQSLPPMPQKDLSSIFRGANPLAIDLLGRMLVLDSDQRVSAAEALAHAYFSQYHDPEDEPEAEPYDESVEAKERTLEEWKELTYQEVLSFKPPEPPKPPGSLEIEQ
Sequence of Calcium/calmodulin-dependent protein kinase type II subunit beta (Homo sapiens) (Q13554 whole entry): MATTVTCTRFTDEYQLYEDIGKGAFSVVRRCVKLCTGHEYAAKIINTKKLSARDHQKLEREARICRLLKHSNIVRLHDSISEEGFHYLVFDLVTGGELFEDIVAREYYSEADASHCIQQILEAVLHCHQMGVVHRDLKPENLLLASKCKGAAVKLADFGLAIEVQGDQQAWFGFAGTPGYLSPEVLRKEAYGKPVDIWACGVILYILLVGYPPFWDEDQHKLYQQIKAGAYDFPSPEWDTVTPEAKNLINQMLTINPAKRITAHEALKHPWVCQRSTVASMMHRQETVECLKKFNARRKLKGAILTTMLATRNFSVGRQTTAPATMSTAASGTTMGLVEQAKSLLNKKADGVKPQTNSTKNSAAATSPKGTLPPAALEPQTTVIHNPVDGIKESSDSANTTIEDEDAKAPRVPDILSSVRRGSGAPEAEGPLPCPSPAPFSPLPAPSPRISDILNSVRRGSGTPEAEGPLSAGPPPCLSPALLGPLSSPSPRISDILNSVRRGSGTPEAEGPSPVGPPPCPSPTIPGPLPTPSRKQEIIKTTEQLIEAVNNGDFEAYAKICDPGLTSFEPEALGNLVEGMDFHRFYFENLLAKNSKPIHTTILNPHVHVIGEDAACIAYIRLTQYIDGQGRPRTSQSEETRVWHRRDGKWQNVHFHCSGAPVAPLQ
Sequence of Macrophage colony-stimulating factor 1 receptor (Homo sapiens) (P07333 whole entry): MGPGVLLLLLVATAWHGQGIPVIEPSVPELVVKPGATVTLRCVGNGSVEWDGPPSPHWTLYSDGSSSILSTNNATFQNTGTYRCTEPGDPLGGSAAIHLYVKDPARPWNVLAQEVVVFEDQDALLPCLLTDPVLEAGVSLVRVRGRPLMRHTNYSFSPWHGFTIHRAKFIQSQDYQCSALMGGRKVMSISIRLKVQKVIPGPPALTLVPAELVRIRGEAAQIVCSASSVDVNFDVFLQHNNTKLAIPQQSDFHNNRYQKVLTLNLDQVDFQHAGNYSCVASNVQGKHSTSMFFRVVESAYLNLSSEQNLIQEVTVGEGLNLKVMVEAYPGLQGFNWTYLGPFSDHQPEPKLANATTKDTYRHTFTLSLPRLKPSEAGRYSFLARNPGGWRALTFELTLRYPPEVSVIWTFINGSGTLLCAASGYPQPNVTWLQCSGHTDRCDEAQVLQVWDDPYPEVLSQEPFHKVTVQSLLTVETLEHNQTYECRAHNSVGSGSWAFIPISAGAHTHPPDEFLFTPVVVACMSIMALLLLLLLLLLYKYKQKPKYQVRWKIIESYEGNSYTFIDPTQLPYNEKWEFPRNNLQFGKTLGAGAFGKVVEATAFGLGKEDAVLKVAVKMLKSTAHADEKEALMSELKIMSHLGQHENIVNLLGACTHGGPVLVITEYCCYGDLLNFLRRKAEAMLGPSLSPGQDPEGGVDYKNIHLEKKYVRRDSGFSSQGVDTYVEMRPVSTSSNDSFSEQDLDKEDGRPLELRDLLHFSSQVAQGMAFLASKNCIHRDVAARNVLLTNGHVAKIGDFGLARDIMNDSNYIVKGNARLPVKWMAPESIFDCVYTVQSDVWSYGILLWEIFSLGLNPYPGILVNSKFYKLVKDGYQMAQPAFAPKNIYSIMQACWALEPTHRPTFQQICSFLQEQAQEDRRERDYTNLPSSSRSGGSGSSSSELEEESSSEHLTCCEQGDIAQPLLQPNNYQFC
Sequence of MAP/microtubule affinity-regulating kinase 3 (Homo sapiens) (P27448 whole entry, looked up): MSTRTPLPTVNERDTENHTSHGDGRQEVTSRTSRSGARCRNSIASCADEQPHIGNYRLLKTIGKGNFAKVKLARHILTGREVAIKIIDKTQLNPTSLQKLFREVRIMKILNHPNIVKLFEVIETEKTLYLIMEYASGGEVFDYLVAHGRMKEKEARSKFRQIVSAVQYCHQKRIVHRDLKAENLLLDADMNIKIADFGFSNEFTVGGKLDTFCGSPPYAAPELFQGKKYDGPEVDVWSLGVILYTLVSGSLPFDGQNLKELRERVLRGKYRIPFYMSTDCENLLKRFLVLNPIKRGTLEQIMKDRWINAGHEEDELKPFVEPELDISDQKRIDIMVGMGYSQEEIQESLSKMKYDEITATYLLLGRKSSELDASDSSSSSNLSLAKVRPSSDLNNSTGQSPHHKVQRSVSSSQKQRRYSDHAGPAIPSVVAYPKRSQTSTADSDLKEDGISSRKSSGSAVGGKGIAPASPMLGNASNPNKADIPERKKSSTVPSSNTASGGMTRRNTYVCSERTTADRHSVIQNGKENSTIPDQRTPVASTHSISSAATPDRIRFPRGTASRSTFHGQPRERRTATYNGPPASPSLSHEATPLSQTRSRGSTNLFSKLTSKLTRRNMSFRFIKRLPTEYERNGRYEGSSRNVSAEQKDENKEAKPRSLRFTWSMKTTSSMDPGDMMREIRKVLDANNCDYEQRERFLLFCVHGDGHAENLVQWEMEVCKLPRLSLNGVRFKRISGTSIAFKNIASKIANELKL

fold change (FC) [1]: 0.26
SMILES: CNC(=O)c1ccccc1Oc1nc(Nc2cc(OC)c(OC)c(OC)c2)ncc1Br

fold change (FC) [2]: 0 | fold change (FC) [3]: 0.53
SMILES: CC(C)[C@H](NC(=O)c1cc(-c2cnn3cc(-c4ccc(OCCN5CCCCC5)cc4)cnc23)cs1)C(F)(F)F

inhibition [4]: 0% | inhibition [5]: 9% | inhibition [6]: 13% | inhibition [7]: 12% | fold change (FC) [8]: 0.21 | fold change (FC) [9]: 0.14 | fold change (FC) [10]: 0
SMILES: O=C(N[C@@H](C1CC1)C(F)(F)F)c1cc(-c2cnn3cc(-c4ccc(F)cc4)cnc23)cs1
